Source: the supplement of paper PMC10307832

Tests used:
Assay in all cases: relative viability (nuclei count vs DMSO), 5 days (fraction); higher = more cells survive
AZD1208 + Phenformin = compound: N[C@@H]1CCCN(c2c(/C=C3\SC(=O)NC3=O)cccc2-c2ccccc2)C1 [AZD1208] + N=C(N)NC(=N)NCCc1ccccc1 [Phenformin] (partner 250 µM)
Method in brief: (§1)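 Lung cancer cell lines in 1536-well plates were dosed by pin tool the day after seeding, either with one drug alone or with a fixed anchor-drug dose plus five library-drug doses (not always all listed) in √10 steps. After 5 days, cells were fixed and their nuclei stained in one step (final 0.05% Triton X-100, 1% formaldehyde, 1 ug/ml Hoechst), then counted on 4× images. Relative viability is the nuclei count in treated wells divided by that in vehicle wells. Values are medians of duplicate plates.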

AZD1208 + Palbociclib = compound: N[C@@H]1CCCN(c2c(/C=C3\SC(=O)NC3=O)cccc2-c2ccccc2)C1 [AZD1208] + CC(=O)c1c(C)c2cnc(Nc3ccc(N4CCNCC4)cn3)nc2n(C2CCCC2)c1=O [Palbociclib] (partner 0.5 µM)
Method in brief: as §1

AZD1208 + Tozasertib = compound: N[C@@H]1CCCN(c2c(/C=C3\SC(=O)NC3=O)cccc2-c2ccccc2)C1 [AZD1208] + Cc1cc(Nc2cc(N3CCN(C)CC3)nc(Sc3ccc(NC(=O)C4CC4)cc3)n2)n[nH]1 [Tozasertib] (partner 0.1 µM)
Method in brief: as §1

AZD1208 + Alpelisib = compound: N[C@@H]1CCCN(c2c(/C=C3\SC(=O)NC3=O)cccc2-c2ccccc2)C1 [AZD1208] + Cc1nc(NC(=O)N2CCC[C@H]2C(N)=O)sc1-c1ccnc(C(C)(C)C(F)(F)F)c1 [Alpelisib] (partner 2 µM)
Method in brief: as §1

Cell Line | relative viability (AZD1208 + Phenformin; first compound 0.08 µM) | relative viability (AZD1208 + Phenformin; first compound 0.253 µM) | relative viability (AZD1208 + Phenformin; first compound 0.8 µM) | relative viability (AZD1208 + Phenformin; first compound 2.53 µM) | relative viability (AZD1208 + Phenformin; first compound 8 µM) | relative viability (AZD1208 + Palbociclib; first compound 0.08 µM) | relative viability (AZD1208 + Palbociclib; first compound 0.253 µM) | relative viability (AZD1208 + Palbociclib; first compound 0.8 µM) | relative viability (AZD1208 + Palbociclib; first compound 2.53 µM) | relative viability (AZD1208 + Palbociclib; first compound 8 µM) | relative viability (AZD1208 + Tozasertib; first compound 0.08 µM) | relative viability (AZD1208 + Tozasertib; first compound 0.253 µM) | relative viability (AZD1208 + Tozasertib; first compound 0.8 µM) | relative viability (AZD1208 + Tozasertib; first compound 2.53 µM) | relative viability (AZD1208 + Tozasertib; first compound 8 µM) | relative viability (AZD1208 + Alpelisib; first compound 0.08 µM) | relative viability (AZD1208 + Alpelisib; first compound 0.253 µM) | relative viability (AZD1208 + Alpelisib; first compound 0.8 µM) | relative viability (AZD1208 + Alpelisib; first compound 2.53 µM) | relative viability (AZD1208 + Alpelisib; first compound 8 µM)
NCI-H1437 | 0.324 | 0.258 | 0.267 | 0.277 | 0.314 | 0.288 | 0.353 | 0.302 | 0.263 | 0.291 | 0.429 | 0.378 | 0.335 | 0.353 | 0.351 | 0.927 | 0.981 | 0.796 | 0.827 | 0.504
NCI-H1651 | 0.328 | 0.387 | 0.299 | 0.315 | 0.249 | 0.527 | 0.535 | – | 0.473 | 0.459 | 0.698 | 0.661 | 0.652 | 0.529 | 0.408 | 0.848 | 0.921 | 0.785 | 0.732 | 0.677
NCI-H1666 | 0.499 | 0.583 | 0.54 | 0.601 | 0.559 | 0.62 | 0.672 | 0.607 | 0.605 | 0.672 | 0.535 | 0.6 | 0.513 | 0.644 | 0.58 | 0.815 | 0.821 | 0.577 | 0.765 | 0.894
NCI-H1734 | 0.392 | 0.426 | 0.336 | 0.293 | 0.264 | 0.312 | 0.32 | 0.313 | 0.325 | 0.255 | 0.272 | 0.26 | 0.247 | 0.219 | 0.227 | 0.614 | 0.619 | 0.557 | 0.556 | 0.434
NCI-H1755 | 0.586 | 0.616 | 0.623 | 0.593 | 0.502 | 0.439 | 0.459 | 0.437 | 0.458 | 0.385 | 0.525 | 0.532 | 0.52 | 0.417 | 0.358 | 0.933 | 1.02 | 0.858 | 0.859 | 0.741
NCI-H1793 | 0.314 | 0.453 | 0.342 | 0.307 | 0.274 | 0.293 | 0.305 | 0.273 | 0.304 | 0.288 | 0.302 | 0.313 | 0.314 | 0.296 | 0.267 | 0.639 | 0.778 | 0.664 | 0.507 | 0.498
NCI-H1915 | 0.366 | 0.402 | 0.372 | 0.348 | 0.352 | 0.504 | 0.435 | 0.486 | 0.474 | 0.455 | 0.427 | 0.378 | 0.367 | 0.249 | 0.244 | 1.05 | 1.09 | 1.05 | 1.03 | 1.03
NCI-H1944 | 0.197 | 0.201 | 0.179 | 0.172 | 0.136 | 0.314 | 0.304 | 0.295 | 0.311 | 0.251 | 0.242 | 0.225 | 0.226 | 0.214 | 0.202 | 0.864 | 0.762 | 0.715 | 0.726 | 0.6
NCI-H1975 | 0.413 | 0.449 | 0.393 | 0.404 | 0.359 | 0.56 | 0.686 | 0.535 | 0.591 | 0.403 | 0.735 | 0.712 | 0.736 | 0.829 | 0.639 | 0.603 | 0.64 | 0.617 | 0.63 | 0.607
NCI-H1993 | 0.538 | 0.468 | 0.522 | 0.471 | 0.488 | 0.595 | 0.578 | 0.439 | 0.544 | 0.432 | 0.667 | 0.52 | 0.526 | 0.566 | 0.543 | – | 0.608 | 0.683 | 0.737 | 0.63
NCI-H2009 | 0.481 | 0.489 | 0.491 | 0.489 | 0.441 | 0.196 | 0.202 | 0.221 | 0.208 | 0.181 | 0.696 | 0.785 | 0.667 | 0.684 | 0.597 | 1.13 | 1.17 | 1.07 | 1.13 | 1.13
NCI-H2023 | 0.394 | 0.386 | 0.348 | 0.367 | 0.295 | 0.34 | 0.39 | 0.333 | 0.373 | 0.332 | 0.389 | 0.235 | 0.254 | 0.219 | 0.181 | 0.512 | 0.448 | 0.396 | 0.461 | 0.45
NCI-H2085 | 0.679 | 0.677 | 0.675 | 0.688 | 0.668 | 0.462 | 0.473 | 0.52 | 0.482 | 0.474 | 0.811 | 0.858 | 0.714 | 0.868 | 0.771 | 0.921 | 0.979 | 0.885 | 1.02 | 1.03
NCI-H2087 | 0.46 | 0.554 | 0.41 | 0.481 | 0.336 | 0.257 | 0.192 | 0.276 | 0.241 | 0.219 | 0.245 | 0.2 | 0.264 | 0.209 | 0.212 | 1.04 | 1.03 | 1.09 | 1.13 | 0.963
NCI-H2126 | 0.506 | 0.507 | 0.493 | 0.545 | 0.466 | 0.363 | 0.362 | 0.349 | 0.33 | 0.382 | 0.743 | 0.784 | 0.816 | 0.632 | 0.66 | 0.703 | 0.724 | 0.652 | 0.642 | 0.624
NCI-H2170 | 0.458 | 0.385 | 0.444 | 0.438 | 0.447 | 0.401 | 0.455 | 0.368 | 0.357 | 0.247 | 0.718 | 0.707 | 0.614 | 0.447 | 0.306 | 0.747 | 0.8 | 0.707 | 0.567 | 0.52
NCI-H2228 | 0.364 | 0.316 | 0.209 | 0.269 | 0.216 | 0.764 | 0.911 | 0.804 | 0.6 | 0.656 | 0.258 | 0.165 | 0.168 | 0.172 | 0.108 | 0.706 | 0.629 | 0.609 | – | 0.466
NCI-H2347 | 0.302 | 0.46 | 0.363 | 0.347 | 0.389 | 0.457 | 0.383 | 0.45 | 0.395 | 0.382 | 0.364 | 0.523 | 0.524 | 0.687 | 0.502 | 1.01 | 0.936 | 1.07 | 0.904 | 0.96
NCI-H2405 | 0.385 | 0.384 | 0.35 | 0.362 | 0.35 | 0.497 | 0.536 | 0.505 | 0.51 | 0.418 | 0.726 | 0.721 | 0.693 | 0.71 | 0.635 | 0.692 | 0.727 | 0.637 | 0.728 | 0.723
NCI-H3122 | 0.413 | 0.4 | 0.406 | 0.417 | 0.422 | 0.206 | 0.155 | 0.149 | 0.223 | 0.164 | 0.402 | 0.315 | 0.353 | 0.348 | 0.369 | 0.686 | 0.68 | 0.647 | 0.583 | 0.722
PC-3 [JPC-3] | 0.47 | 0.5 | 0.496 | 0.515 | 0.504 | 0.586 | 0.596 | 0.548 | 0.582 | 0.564 | 0.9 | 0.989 | 0.906 | 0.886 | 0.78 | 1.07 | 1.07 | 1 | 1.1 | 0.946
PC-14 | 0.778 | 0.616 | 0.525 | 0.544 | 0.565 | 0.511 | 0.59 | 0.502 | 0.532 | 0.475 | 0.554 | 0.55 | 0.467 | 0.503 | 0.463 | 0.928 | 1 | 0.956 | 0.917 | 0.931
RERF-LC-KJ | 0.402 | 0.44 | 0.427 | 0.41 | 0.379 | 1.05 | 1.09 | 1 | 1.02 | 0.802 | 0.505 | 0.423 | 0.56 | 0.519 | 0.384 | 0.708 | 0.762 | 0.703 | 0.652 | 0.607
SK-LU-1 | 0.502 | 0.543 | 0.408 | 0.506 | 0.42 | 0.341 | 0.373 | 0.375 | 0.421 | 0.401 | 0.298 | 0.298 | 0.246 | 0.285 | 0.22 | 0.792 | 0.913 | 0.979 | 0.9 | 0.76
SK-MES-1 | 0.668 | 0.672 | 0.648 | 0.696 | 0.621 | 0.299 | 0.348 | 0.316 | 0.307 | 0.311 | 1 | 0.956 | 0.903 | 0.853 | 0.744 | 0.697 | 0.856 | 0.628 | 0.704 | 0.683
SW 1573 | 0.295 | 0.272 | 0.27 | 0.244 | 0.228 | 0.264 | 0.268 | 0.265 | 0.346 | 0.259 | 0.22 | 0.175 | 0.178 | 0.129 | 0.149 | 0.65 | 0.705 | 0.595 | 0.505 | 0.592
UMC-11 | 0.312 | 0.355 | 0.339 | 0.388 | 0.306 | 0.293 | 0.281 | 0.291 | 0.308 | 0.262 | 0.204 | 0.205 | 0.211 | 0.207 | 0.21 | 0.757 | 0.908 | 0.746 | 0.77 | 0.488
